In PubChem BioAssay (NCI):
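Briefly, cells in 96-well plates were exposed to five compound concentrations for 48 h, and endpoints were estimated by linear interpolation. Definition used: TGI = concentration required for complete inhibition of growth.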

Legend:
Test in all cases: NCI-60 cell line screen, 48 h
[1] = tested on: 786-0 renal
[2] = tested on: ACHN renal
[3] = tested on: HL-60(TB) leukemia
[4] = tested on: HOP-62 NSCLC
[5] = tested on: IGROV1 ovarian
[6] = tested on: KM12 colon
[7] = tested on: MOLT-4 leukemia
[8] = tested on: NCI-H23 lung
[9] = tested on: OVCAR-5 ovarian
[10] = tested on: OVCAR-8 ovarian
[11] = tested on: SF-268 CNS
[12] = tested on: SF-295 CNS
[13] = tested on: SK-MEL-28 melanoma
[14] = tested on: SK-OV-3 ovarian
[15] = tested on: SNB-19 CNS
[16] = tested on: UO-31 renal

| SMILES | TGI [1] [µM] | TGI [2] [µM] | TGI [3] [µM] | TGI [4] [µM] | TGI [5] [µM] | TGI [6] [µM] | TGI [7] [µM] | TGI [8] [µM] | TGI [9] [µM] | TGI [10] [µM] | TGI [11] [µM] | TGI [12] [µM] | TGI [13] [µM] | TGI [14] [µM] | TGI [15] [µM] | TGI [16] [µM] |
| --- | --- | --- | --- | --- | --- | --- | --- | --- | --- | --- | --- | --- | --- | --- | --- | --- |
| CC1=NN(c2ccc(S(=O)(=O)O)cc2)C2(C1)C(Cl)C(=O)N2c1nc2ccccc2s1 (centres undefined) | > 100 | > 100 | > 100 | > 100 | > 100 | > 100 | > 100 | > 100 | > 100 | > 100 | > 100 | > 100 | > 100 | > 100 | > 100 | > 100 |
| COc1ccc(N2C(=O)C(Cl)C2c2cc3cc(Br)ccc3nc2Cl)cc1 (centres undefined) | 18.5 | 9.64 | 14.5 | 20.4 | 10.6 | > 25 | 11.9 | 15.6 | > 25 | > 25 | 19 | > 25 | > 25 | > 25 | > 25 | 2.43 |
| C=CCCCCCCCCCP(=O)(c1ccccc1)c1ccc2c(c1)OCCOCCOCCOCCO2 (centres undefined) | 29.8 | 31.4 | 19.7 | 30.5 | 30.2 | 25.4 | 24.9 | 29.7 | 31.2 | 30.3 | 29.5 | 28.5 | 30.1 | 34.8 | 25.7 | 22.7 |
| CSC1=NN(C(C)=O)C(C(OC(C)=O)C(OC(C)=O)C(OC(C)=O)C(COC(C)=O)OC(C)=O)S1 (centres undefined) | > 100 | > 100 | > 100 | > 100 | > 100 | > 100 | > 100 | > 100 | > 100 | > 100 | > 100 | > 100 | > 100 | > 100 | > 100 | > 100 |
| O=C1Nc2ccc(Br)cc2/C1=N/S(=O)(=O)O | 68.2 | > 100 | 46.7 | > 100 | > 100 | > 100 | 63.4 | > 100 | 79.3 | > 100 | > 100 | > 100 | > 100 | > 100 | > 100 | > 100 |
| CCN(CC)CCNc1ccc2ncn3c4ccc(OC)cc4c(=O)c1c23 | 15.5 | 19 | 18.7 | 20.3 | 28.1 | 7.68 | 11 | 18.1 | 24 | 11.8 | 14.4 | 11.6 | 28.4 | 23.8 | 21.4 | 11.8 |
| Cc1c(C(=O)c2ccccc2)[n+](=O)c2cc(Cl)c(Cl)cc2n1[O-] | 29.3 | 28.5 | 4.82 | 29.7 | 5.16 | 23 | 12.2 | 11.6 | 31.8 | 23.2 | 29.5 | 28.7 | 29.1 | 41.4 | 37.4 | 26.1 |
| COc1cccc(NC(=O)CSc2nnc(Cc3ccccc3)o2)c1 | > 100 | 63.6 | > 100 | > 100 | > 100 | > 100 | > 100 | > 100 | > 100 | > 100 | > 100 | > 100 | > 100 | > 100 | > 100 | > 100 |
| S=C1NC2=C(CSC/C2=C\c2ccc(Cl)cc2)C(c2ccc(Cl)cc2)N1 (centres undefined) | 84 | > 100 | 70.7 | > 100 | > 100 | > 100 | > 100 | > 100 | > 100 | > 100 | > 100 | > 100 | > 100 | > 100 | > 100 | > 100 |
